Reference: a melting point compilation (Tetko et al.)

## Cc1ccc(O)c(C(=O)Nc2ccncc2)c1
  melting point: 249 to 251 °C

## Clc1cc2nncn2cn1
  melting point: 111 to 113 °C

## N=C(NN)c1cc(Cl)ccn1
  melting point: 248 to 250 °C

## Nn1c(SCC(=O)O)nnc1C1CCCCC1
  melting point: 159 to 161 °C

## OCc1ccc(Oc2ccc(Br)cc2)c(F)c1
  melting point: 68 to 70 °C

## O=C1C=CC=NC1=C(O)Nc1cccnc1
  melting point: 120 to 122 °C

## CCNC(=O)CN1CCNCC1
  melting point: 83 to 85 °C

## O=C(CCl)c1ccc2c(c1)CCCC2
  melting point: 62 to 64 °C

## COC(=O)C(Cl)c1cc(Cl)cc(Cl)c1 (configuration not stated)
  melting point: 56 to 58 °C

## Cc1[nH]c(-c2cccnc2)nc(=NN)c1C
  melting point: 194 to 196 °C

## N#Cc1cc(Cl)ccn1
  melting point: 81 to 85 °C

## CCN1CC(C(=O)O)CC1=O (configuration not stated)
  melting point: 92 to 94 °C

## CC1CCCC1(N)C(N)=O (configuration not stated)
  melting point: 64 to 66 °C

## Cc1c(N)cccc1COc1ccccc1
  melting point: 94 to 96 °C

## O=C(O)CCc1nnc[nH]1
  melting point: 127 to 129 °C

## CC(C)C(NC(=O)c1ccc(Br)cc1)C(=O)O (configuration not stated)
  melting point: 189 to 191 °C

## Cc1ccnc(Oc2ccc(N)cc2)n1
  melting point: 119 to 121 °C

## Cc1nc2nc(Br)ccc2o1
  melting point: 76 to 78 °C

## O=Cc1cn(-c2ccccc2)nc1-c1ccccc1
  melting point: 144 to 148 °C

## CCCCCCCCCCCC(=O)c1ccc(O)cc1
  melting point: 71 to 73 °C

## CCc1nc(N)no1
  melting point: 39 to 41 °C

## COc1ccc(Br)c(C#N)c1
  melting point: 101 to 103 °C

## COC(=O)c1ccc(S(C)(=O)=O)cc1
  melting point: 116 to 118 °C

## Cc1nnc(-c2cccc(C#N)c2)[nH]1
  melting point: 173 to 175 °C

## O=C(c1c[nH]c2ccccc12)N1CCCC1
  melting point: 229 to 231 °C

## N#Cc1c[nH]c2ccc(Br)cc2c1=O
  melting point: 359 to 361 °C

## O=C(O)c1ncccc1OCC(F)(F)F
  melting point: 116 to 118 °C

## O=C(O)C1CC2CCCCC2N1C(=O)c1ccc(F)cc1 (configuration not stated)
  melting point: 147 to 149 °C

## COc1cc(CN)ccc1OC(C)(C)C
  melting point: 52 to 54 °C

## Nc1c(Cl)cc(S(=O)(=O)Cl)cc1Cl
  melting point: 134 to 136 °C

## O=C(O)c1ccc(Cl)c(S(=O)(=O)N2CCOCC2)c1
  melting point: 176 to 178 °C

## CC(=O)c1nnn(-c2ccc(F)cc2)c1C
  melting point: 77 to 79 °C

## COCCNC(=O)C(C)Cl (configuration not stated)
  melting point: 28 to 30 °C

## O=C(O)c1oc2ccccc2c1CSc1ccc(Cl)cc1
  melting point: 158 to 160 °C

## COc1ccc(C=O)c([N+](=O)[O-])c1
  melting point: 91 to 93 °C

## NS(=O)(=O)c1cccc(O)c1
  melting point: 159 to 161 °C

## CC(C)c1ncc(Cl)c(C(=O)O)n1
  melting point: 129 to 131 °C

## O=Cc1cccc(OC(F)(F)C(=O)O)c1
  melting point: 64 to 66 °C

## Nc1ncc(Br)cc1S(=O)(=O)N1CCCC1
  melting point: 169 to 171 °C

## OCc1c(Cl)ccc2cccnc12
  melting point: 93 to 95 °C

## Cc1ccc(-c2nc3ccccc3[nH]2)s1
  melting point: 259 to 261 °C

## O=C1CC(c2ccccc2)NCCN1 (configuration not stated)
  melting point: 102 to 104 °C

## Nc1cc(-c2ccc(Br)cc2)ncn1
  melting point: 251 to 253 °C

## Cc1nc(=NCC(=O)O)c2cc(-c3ccccc3)sc2[nH]1
  melting point: 257 to 259 °C

## O=C(O)c1cc(Cl)cc(S(=O)(=O)Cl)c1F
  melting point: 162 to 164 °C

## Cn1cc(-c2ccc(Cl)nn2)cn1
  melting point: 188 to 190 °C

## NCc1noc(-c2ccccc2)n1
  melting point: 115 to 117 °C

## COc1cc(Cl)c(C(=O)O)cc1OC
  melting point: 179 to 181 °C

## N#Cc1nc(Cl)cc(N)c1N
  melting point: 249 to 251 °C

## COC(=O)CS(=O)c1ccc(Br)cc1 (configuration not stated)
  melting point: 84 to 86 °C

## Cc1cc(=O)c(C(=O)O)nn1-c1ccccc1Cl
  melting point: 215 to 217 °C

## CCOC(=O)/C(C#N)=C\Nc1ccc2c(c1)OCCCO2
  melting point: 124 to 126 °C

## CNC(c1ccc(Cl)cc1)c1cccnc1 (configuration not stated)
  melting point: 44 to 46 °C

## Nc1cnc(Cc2ccc(F)cc2)nc1
  melting point: 123 to 125 °C

## NS(=O)(=O)N1CCCc2ccccc21
  melting point: 125 to 127 °C

## O=C(O)C1CCCN(c2nc3ccccc3s2)C1 (configuration not stated)
  melting point: 166 to 168 °C

## N#Cc1cccc(-n2ccnc2)c1
  melting point: 161 to 163 °C

## O=C(Nc1ccc(O)cc1)c1ccco1
  melting point: 218 to 220 °C

## O=c1ccc([N+](=O)[O-])cn1CCCl
  melting point: 130 to 132 °C

## COc1cc(Br)c2c(c1)NC(=O)C2=O
  melting point: 179 to 181 °C

## NC(=O)Nc1ccccc1Br
  melting point: 199 to 201 °C

## Cc1cc(NC(=O)OCC(F)(F)F)n(CCC#N)n1
  melting point: 128 to 130 °C

## Cc1n[nH]c(C)c1C1COCCN1 (configuration not stated)
  melting point: 127 to 129 °C

## NS(=O)(=O)c1ccc2c(c1)CCCC2
  melting point: 135 to 137 °C

## O=C1NCCC=C1Cl
  melting point: 76 to 78 °C

## N#Cc1ccc2nccnc2c1
  melting point: 179 to 181 °C

## Nc1ccc(CN2CCOC2=O)cc1
  melting point: 99 to 101 °C

## CCC(Oc1ccccc1Cl)C(=O)O (configuration not stated)
  melting point: 82 to 84 °C

## NC(=NO)c1ccc(OCc2cccnc2)cc1
  melting point: 165 to 167 °C

## Cc1cc(Cl)nc2c(C(C)C)cccc12
  melting point: 43 to 45 °C

## COc1ccc(Br)c(S(N)(=O)=O)c1
  melting point: 119 to 121 °C

## CC(=O)c1ccc(OC2CCCCC2)c(F)c1
  melting point: 48 to 50 °C

## CC(=O)c1ccc(Cl)c(N)c1
  melting point: 103 to 105 °C

## CCNc1nc(NCC)n2c(S)nnc2n1
  melting point: 98 to 100 °C

## O=C(O)Cc1csc(NC(=O)OCC(F)(F)F)n1
  melting point: 182 to 184 °C

## NC(=S)COc1ccc(F)cc1
  melting point: 120 to 122 °C

## CC(C)(CN)S(=O)(=O)c1ccc(Br)cc1
  melting point: 74 to 76 °C

## CC(C)(C)NS(=O)(=O)c1cc(C(=O)O)ccc1Br
  melting point: 217 to 219 °C

## CS(=O)(=O)c1ccccc1NC(=O)CCl
  melting point: 118 to 120 °C

## Cc1c(N)cccc1C(=O)Nc1ccccc1
  melting point: 161 to 163 °C

## Nc1ccc(-c2nc3cccc(Cl)c3s2)cc1
  melting point: 149 to 151 °C

## Oc1ccc(OC2CCCCC2)cc1
  melting point: 63 to 65 °C

## CC1CCCCN1C(=O)c1ccc(N)cc1Cl (configuration not stated)
  melting point: 186 to 188 °C

## COc1cc(Br)c(S(=O)(=O)Cl)cc1Cl
  melting point: 89 to 91 °C

## CCOC(=O)c1oc2c(c1C)C(=O)CCC2
  melting point: 104 to 106 °C

## Nc1ccc2c(Br)ccc(Cl)c2n1
  melting point: 249 to 251 °C

## O=C(O)Cc1ccccc1OC(F)F
  melting point: 76 to 78 °C

## Cn1cc(CO)nn1
  melting point: 29 to 31 °C

## O=C1CCC(=O)N1c1ncc(Br)s1
  melting point: 150 to 152 °C

## Nc1nc2c(Cl)c(Cl)ccc2s1
  melting point: 129 to 131 °C

## Cc1ccccc1-c1nnc(N)[nH]1
  melting point: 219 to 221 °C

## CC(C)(C)NC(=O)NC(=O)CCl
  melting point: 109 to 112 °C

## CC1(c2ccc([N+](=O)[O-])cc2)NC(=O)NC1=O (configuration not stated)
  melting point: 235 to 237 °C

## COc1ccc(S(=O)(=O)N2CCCCC2)cc1NC(=O)CCl
  melting point: 115 to 130 °C

## O=C(O)c1cn(CCOc2ccccc2Cl)c2ccccc12
  melting point: 186 to 188 °C

## COc1cc(OC)c(C(C)=O)cc1Cl
  melting point: 134 to 136 °C

## CCOCCNC(=O)c1ccc(Br)cc1
  melting point: 99 to 101 °C

## N#CCC(=O)N1CCN(c2ccccc2)CC1
  melting point: 132 to 134 °C

## CSc1cccc(N)c1C
  melting point: 44 to 46 °C

## CC(Cl)c1cn(-c2ccccc2)nn1 (configuration not stated)
  melting point: 69 to 71 °C

## O=C(O)c1cnc(C2CC2)s1
  melting point: 187 to 189 °C

## NC(=O)N1CC(O)CC1C(=O)O (configuration not stated)
  melting point: 166 to 168 °C

## Cc1cc2nnc(S)n2c(C)n1
  melting point: 250 to 252 °C

## COC(=O)c1ccc(CBr)s1
  melting point: 36 to 38 °C

## NCc1c[nH]nn1
  melting point: 211 to 213 °C

## O=C(O)CCn1ncc(=O)c2ccccc21
  melting point: 130 to 132 °C

## CCCOc1ccc2c(c1)OCC(C(=O)O)C2 (configuration not stated)
  melting point: 139 to 141 °C

## CC(C)CN1C(=O)CN=C1S
  melting point: < 17 °C

## Cc1c(Cl)nn2c(C(F)(F)F)nnc2c1C
  melting point: 93 to 95 °C

## CC(Cl)c1nnc(-c2ccc([N+](=O)[O-])cc2)o1 (configuration not stated)
  melting point: 161 to 163 °C

## Clc1ccc(-c2noc(Cl)n2)cc1
  melting point: 59 to 61 °C

## Cc1ccc(C(=O)N(C)C)cc1N
  melting point: 97 to 99 °C

## CC(C)(CC(=O)O)NC(=O)OC(C)(C)C
  melting point: 89 to 91 °C

## CCOc1ccc(S(=O)(=O)NC(=O)c2ccccc2)cc1
  melting point: 85 to 87 °C

## Cc1ccc(-c2cc(C(=O)NN)c3ccccc3n2)cc1
  melting point: 85 to 90 °C

## CNCCCc1cc(-c2ccc(F)cc2)no1
  melting point: 146 to 148 °C

## NC(=O)c1cccc(CO)c1
  melting point: 113 to 115 °C

## Oc1cccc(CNC2CCC(O)CC2)c1 (configuration not stated)
  melting point: 180 to 182 °C

## CCN(CC)S(=O)(=O)c1ccc(Cl)c(N)c1
  melting point: 84 to 88 °C

## N#Cc1ccc(C(=O)O)nc1
  melting point: 210 to 215 °C

## Nc1cnn(-c2ccccc2)c1
  melting point: 95 to 97 °C

## Cn1cc(Br)cc1C(=O)O
  melting point: 129 to 131 °C

## Cc1nnc(SCC(=O)O)n1Cc1ccccc1
  melting point: 167 to 169 °C

## CC(C)COC(=O)N1CCC(C(=O)O)CC1
  melting point: 69 to 71 °C

## O=[N+]([O-])c1ccc2c(S(=O)(=O)Cl)c[nH]c2c1
  melting point: 173 to 175 °C

## Nc1ccccc1NS(=O)(=O)c1cccs1
  melting point: 188 to 190 °C

## Cc1cc(C=O)c(C)[nH]1
  melting point: 139 to 141 °C

## Cc1cccc2[nH]c(CCC(=O)O)nc12
  melting point: 238 to 240 °C

## O=C(CCCl)Nc1ccc(N2CCOCC2)cc1
  melting point: 192 to 194 °C

## COC(=O)c1ccc(N)c(OC(F)F)c1
  melting point: 64 to 66 °C

## O=C(O)C1CCN(C(=O)/C=C/c2ccccc2)CC1
  melting point: 191 to 196 °C

## Cc1nc(Cl)cc(Cl)n1
  melting point: 44 to 46 °C

## CC(=Cc1ccc(F)cc1)C(=O)O
  melting point: 150 to 152 °C

## FC(F)Oc1ccc(-c2nnc(S)o2)cc1
  melting point: 121 to 123 °C

## CC(C)CNC(=O)NC(=O)C(C)Cl (configuration not stated)
  melting point: 85 to 87 °C

## CC(C)c1ccccc1-n1ccnc1S
  melting point: 173 to 177 °C

## Nc1ccc(-c2cn3c(n2)CCCC3)cc1
  melting point: 209 to 211 °C

## Sc1nnc(NCc2ccccc2)s1
  melting point: 146 to 148 °C

## O=C(O)Cc1ccc(C(F)F)cc1
  melting point: 76 to 78 °C

## CCOC(=O)c1[nH]c2c(c1C)C(=O)CC(C)(C)C2
  melting point: 159 to 163 °C

## Clc1c[nH]c2ccccc12
  melting point: 79 to 81 °C

## Cc1n[nH]c(C(=O)O)c1Br
  melting point: 271 to 273 °C

## Cc1ccc(C(=O)N2CC(C)CC(C)C2)cc1N (configuration not stated)
  melting point: 154 to 156 °C

## CNC1CCN(c2ccc(Cl)cc2)CC1
  melting point: 49 to 51 °C

## Cc1cc([N+](=O)[O-])cnc1N1CCCCC1C (configuration not stated)
  melting point: 48 to 50 °C

## COC(=O)C(C)Cn1cc(Br)cn1 (configuration not stated)
  melting point: 43 to 45 °C

## Nc1ncc(-c2cccc(F)c2)s1
  melting point: 168 to 170 °C
